Reference: US6716836B2, “Non-nucleoside reverse transcriptase inhibitors” (Boehringer Ingelheim (Canada) Ltd., priority 2001, dated 2004)

Tests used:
HIV-1 RT wild type (WT) = target: T1, HIV-1 RT wild type (WT) (Human immunodeficiency virus type 1 group M subtype B, UniProt P04585); assay: Reverse Transcriptase (RT) assay, wild type enzyme; type: biochemical
T1 construct: Heterodimeric RT was eluted using a descending gradient; made in house; host or cells: E. coli
From the text: (§1) Among the enzymes for which Human Immunodeficiency Virus (HIV-1) encodes is a reverse transcriptase (1), so-named because it transcribes a DNA copy from an RNA template. This activity can be quantitatively measured in a cell-free enzyme assay, which has been previously described (2), and is based upon the observation that reverse transcriptase is able to use a synthetic template poly r(C) primed with oligo d(G) to transcribe a radio-labelled, acid-precipitable DNA strand utilising ^3H-dGTP as a substrate. The assay described below utilises the wild type (WT) enzyme, which is the predominant form of the enzyme observed with patients infected with HIV-1. Utilisation of mutant RT enzymes (for example, Y181C, prepared by site-directed mutagenesis in which the tyrosine residue at codon 181 has been replaced by a cysteine residue, or the mutants K103N, V106A and Y188C) and analogous assay conditions allows compounds to be evaluated for their effectiveness at inhibiting the mutant enzymes.
(§2) The HIV-1 RT expression clone, pKRT2, was obtained from Yale University (3). An overnight culture, grown in 2×YT medium (37° C., 225 rpm) (4), supplemented with 100 μg/mL ampicillin for positive selection was used to inoculate the 2×YT medium. The culture was incubated (37° C., 225 rpm) until it reached an OD600 of 0.6-0.9. At that time, the repressor inhibitor IPTG (isopropyl P-D-thiogalactopyranoside) was added to 0.5 mM, and the mixture was incubated for an additional 2 hours.
(§3) Purification of recombinant reverse transcriptase was performed using a combination of methods previously described (5). This procedure is summarised briefly as follows: E. Coli containing RT-1 wt or RT-1 (Y181 C) were suspended in 50 mM MES, pH 6.0 containing 10% glycerol, lysed in a French press, centrifuged, and the supernates discarded. Lysate pellets were extracted with buffer A (50 mM MES, pH 6.0, 100 mM KCl, 50 mM KPi, 10% glycerol, 0.02% hexyl-β-glucoside), and re-centrifuged; nucleic acid in supernates was precipitated with 0.1% polyethylenimine. […] Bound RT was eluted with a gradient of 0 to 1.0M
(§4) (NH4)2 SO4 in buffer B. Heparin-Sepharose fractions containing RT were concentrated (Amicon YM-30 membrane), combined with equal volumes of 2.0M (NH4)2SO4 in buffer B and injected onto a 21.5×150 mm TSK Phenyl-5PW HIC HPLC column (Phenomenex). Heterodimeric RT was eluted using a descending gradient of 1.0M to 0M (NH4)2SO4 in buffer B, concentrated, and stored at 4° C.
(§5) The 2.4× concentrated stock reaction mixture was aliquoted and stored at −20° C. The mixture is stable and can be thawed for use in each assay. This enzyme assay has been adapted to a 96 well microtiter plate system, and has been previously described (6). Tris buffer (50 mM, pH 7.8), vehicle (solvent diluted to match the compound dilution), or compounds in vehicle were dispensed into 96-well microtiter plates (10 μL/well; 3 wells/compound). The HIV-1 RT enzyme was thawed, diluted in 50 mM Tris pH 7.8 containing 0.05% Chaps to give 1.5 nM enzyme and 25 μL were dispensed per well. Ten μL of 0.5M EDTA were added to the first three wells of the microtiter plate. EDTA chelates the Mg^2+ present and prevents reverse transcription. This group served as background polymerisation, which was subtracted, from all other groups. Twenty-five μl of the 2.4× reaction mixture was added to all wells and the assay was allowed to incubate at room temperature for 30 minutes. The assay was terminated by precipitating the DNA in each well with 60 μL of sodium pyrophosphate (2% w/v) in 10% trichloroacetic acid (TCA) (10% w/v). The microtiter plate was incubated for 15 minutes at 4° C. and the precipitate was harvested onto #30 glass fibre paper (Schleicher & Schuell) using a Tomtech 96-well harvester. The filters were dried, placed in plastic bags with Betaplate scintillation cocktail (Pharmacia/LKB) and counted in the Betaplate counter (Pharmacia/LKB).
(§6) The calculation for percent inhibition is as follows: [formula] […]

[1] = target: T2, HIV-1 RT double mutant K103N/Y181C (Human immunodeficiency virus type 1 group M subtype B, UniProt P04585, K690N/Y768C); assay: Reverse Transcriptase (RT) assay, double mutant enzyme; type: biochemical
T2 construct: Heterodimeric RT was eluted using a descending gradient; made in house; host or cells: E. coli (inferred; the text describes only wild type and Y181C preparations)
From the text: as §1, §2, §3, §4, §5, §6

Structure (SMILES) | IC50 (HIV-1 RT wild type (WT)) [nM] | IC50 [1] [nM]
CCN1c2ncc(CCOc3ccc4c(c3)C(C)(C)N(C)S4(=O)=O)cc2C(=O)N(C)c2cccnc21 [Compound 307] | < 100 | 100 to 1000
Cc1cc(F)nc2c1NC(=O)c1cc(CCOc3cccc4c3CS(=O)(=O)N4)cnc1N2C1CC1 [Compound 106] | < 100 | –
CCN1c2ncc(CCOc3cccc4c3CS(=O)(=O)N4)cc2C(=O)Nc2c(C)cc(C)nc21 [Compound 109] | < 100 | 100 to 1000
CCN1c2ncc(CCOc3ccc4c(c3)CS(=O)(=O)N4)cc2C(=O)N(C)c2cccnc21 [Compound 402] | < 100 | > 1000
CCN1c2ncc(CCOc3cccc4c3CS(=O)(=O)N4Cc3cc[n+]([O-])cc3)cc2C(=O)Nc2c(C)cc(Cl)nc21 [Compound 146] | < 100 | < 100
CCN1c2ncc(COc3ccc4c(c3)CS(=O)(=O)N4)cc2C(=O)N(C)c2ccc(F)nc21 [Compound 404] | < 100 | > 1000
CCN1c2ncc(CCOc3cccc4c3CS(=O)(=O)N4C)cc2C(=O)Nc2c(C)cc(F)nc21 [Compound 112] | < 100 | < 100
CCN1c2ncc(CCOc3cccc4c3CCS(=O)(=O)N4C(=O)N3CCOCC3)cc2C(=O)N(C)c2cccnc21 [Compound 618] | < 100 | < 100
CCN1c2ncc(CCOc3cccc4c3CS(=O)(=O)N4CC(=O)NO)cc2C(=O)N(C)c2cccnc21 [Compound 133] | < 100 | < 100
CCN1c2ncccc2NC(=O)c2cc(CCOc3cccc4c3C=CS(=O)(=O)N4C)cnc21 [Compound 805] | < 100 | 100 to 1000
CCN1C(=O)c2cc(CCOc3cccc4c3C=CS(=O)(=O)N4C)cnc2N(CC)c2ncccc21 [Compound 806] | < 100 | < 100
CCOC(=O)CCCN1c2cccc(OCCc3cnc4c(c3)C(=O)N(C)c3cccnc3N4CC)c2CS1(=O)=O [Compound 135] | < 100 | < 100
CCOC(=O)N1c2cccc(OCCc3cnc4c(c3)C(=O)N(C)c3cccnc3N4CC)c2CS1(=O)=O [Compound 122] | < 100 | < 100
Cc1cc(F)nc2c1N(C)C(=O)c1cc(CCOc3cccc4c3CS(=O)(=O)N4C)cnc1N2C1CC1 [Compound 119] | < 100 | 100 to 1000
CCN1c2ncc(CCOc3ccc4c(c3)CNS4(=O)=O)cc2C(=O)N(C)c2cccnc21 [Compound 301] | < 100 | 100 to 1000
Cc1ccnc2c1NC(=O)c1cc(CCOc3cccc4c3C(C)(C)NS4(=O)=O)cnc1N2C1CC1 [Compound 226] | < 100 | > 1000
CCN1c2ncc(CCOc3cccc4c3C=CS(=O)(=O)N4)cc2C(=O)N(C)c2cccnc21 [Compound 808] | 100 to 1000 | –
CN1C(=O)c2cc(CCOc3cccc4c3CS(=O)(=O)N4)cnc2N(C2CC2)c2ncccc21 [Compound 105] | < 100 | –
CCN(CC)CCN1c2cccc(OCCc3cnc4c(c3)C(=O)N(C)c3cccnc3N4CC)c2CCS1(=O)=O [Compound 613] | < 100 | < 100
CCN1c2ncc(CCOc3cccc4c3CCS(=O)(=O)N4CC(=O)O)cc2C(=O)N(C)c2cccnc21 [Compound 614] | < 100 | < 100
CCN1c2ncc(CCOc3cccc4c3CS(=O)(=O)N4CC3CC3)cc2C(=O)Nc2c(C)ccnc21 [Compound 121] | < 100 | 100 to 1000
CCN1c2ncc(CCOc3cccc4c3CS(=O)(=O)N4CC)cc2C(=O)N(C)c2ccc(C)nc21 [Compound 115] | < 100 | < 100
